In one assay the target is Ephrin type-A receptor 2 (Homo sapiens, UniProt P29317). The experiment in a line: Inhibition of recombinant human N-terminal His6-tagged EphA2 (N598 to R890 residues) expressed in baculovirus using poly-EY as substrate after 180 mins by luciferase coupled chemiluminescence assay.
For a further assay, the target named is T1, Ephrin type-B receptor 4 (Homo sapiens, UniProt P54760).
T1 sequence (P54760 whole entry): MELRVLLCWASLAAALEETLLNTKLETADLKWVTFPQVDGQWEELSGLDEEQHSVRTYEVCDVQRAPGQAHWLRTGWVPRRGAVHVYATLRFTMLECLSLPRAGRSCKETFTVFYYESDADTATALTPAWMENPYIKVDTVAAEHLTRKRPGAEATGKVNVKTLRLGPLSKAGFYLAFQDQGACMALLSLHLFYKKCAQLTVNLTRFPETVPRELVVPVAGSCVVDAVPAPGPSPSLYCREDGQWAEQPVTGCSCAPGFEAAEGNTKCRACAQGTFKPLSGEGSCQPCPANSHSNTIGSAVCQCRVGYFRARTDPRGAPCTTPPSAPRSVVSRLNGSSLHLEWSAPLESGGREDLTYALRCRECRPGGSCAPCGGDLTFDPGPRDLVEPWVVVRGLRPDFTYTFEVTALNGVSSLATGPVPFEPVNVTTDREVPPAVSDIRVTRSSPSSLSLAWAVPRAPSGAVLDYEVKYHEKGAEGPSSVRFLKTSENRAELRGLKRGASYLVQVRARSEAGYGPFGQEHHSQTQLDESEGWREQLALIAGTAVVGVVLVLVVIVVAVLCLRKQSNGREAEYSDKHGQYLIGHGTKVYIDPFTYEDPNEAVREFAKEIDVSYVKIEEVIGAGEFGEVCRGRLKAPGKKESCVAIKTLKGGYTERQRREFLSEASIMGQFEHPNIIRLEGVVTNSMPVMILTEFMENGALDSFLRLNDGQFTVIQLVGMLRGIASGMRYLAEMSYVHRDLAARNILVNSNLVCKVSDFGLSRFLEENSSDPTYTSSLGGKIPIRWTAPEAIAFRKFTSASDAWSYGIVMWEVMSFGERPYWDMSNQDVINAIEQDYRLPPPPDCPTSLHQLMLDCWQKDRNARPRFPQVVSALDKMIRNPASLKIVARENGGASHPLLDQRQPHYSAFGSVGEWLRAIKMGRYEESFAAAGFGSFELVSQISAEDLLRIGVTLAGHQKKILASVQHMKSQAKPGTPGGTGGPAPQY
Put plainly: Inhibition of recombinant human N-terminal His6-tagged EphB4 kinase domain (E605 to E890 residues) expressed in baculovirus using poly-AEKY as substrate after 150 mins in presence of gamma33P-ATP by liquid scintillation spectrometry.

Assay [1] has as its target Receptor tyrosine-protein kinase erbB-2 (Homo sapiens, UniProt P04626). Put plainly: Inhibition of recombinant human N-terminal GST His6-tagged thrombin cleavage site-fused ErbB2 kinase domain (Q679 to V1255 residues) expressed in baculovirus infected insect Sf9 cells using biotinylated poly-EY as substrate after 60 mins by alphascreen assay. (Alpha assays give light when donor and acceptor beads are brought close together.)

Assay [2] concerns the target Vascular endothelial growth factor receptor 2 (Homo sapiens, UniProt P35968). The experiment in a line: Inhibition of recombinant human N-terminal GST-fused KDR (D807 to V1356 residues) expressed in baculovirus infected […] insect Sf9 cells using poly-EY as substrate after 240 mins by luciferase coupled chemiluminescence assay.

Sequence of Receptor tyrosine-protein kinase erbB-2 (P04626 whole entry, the tested form may be a part): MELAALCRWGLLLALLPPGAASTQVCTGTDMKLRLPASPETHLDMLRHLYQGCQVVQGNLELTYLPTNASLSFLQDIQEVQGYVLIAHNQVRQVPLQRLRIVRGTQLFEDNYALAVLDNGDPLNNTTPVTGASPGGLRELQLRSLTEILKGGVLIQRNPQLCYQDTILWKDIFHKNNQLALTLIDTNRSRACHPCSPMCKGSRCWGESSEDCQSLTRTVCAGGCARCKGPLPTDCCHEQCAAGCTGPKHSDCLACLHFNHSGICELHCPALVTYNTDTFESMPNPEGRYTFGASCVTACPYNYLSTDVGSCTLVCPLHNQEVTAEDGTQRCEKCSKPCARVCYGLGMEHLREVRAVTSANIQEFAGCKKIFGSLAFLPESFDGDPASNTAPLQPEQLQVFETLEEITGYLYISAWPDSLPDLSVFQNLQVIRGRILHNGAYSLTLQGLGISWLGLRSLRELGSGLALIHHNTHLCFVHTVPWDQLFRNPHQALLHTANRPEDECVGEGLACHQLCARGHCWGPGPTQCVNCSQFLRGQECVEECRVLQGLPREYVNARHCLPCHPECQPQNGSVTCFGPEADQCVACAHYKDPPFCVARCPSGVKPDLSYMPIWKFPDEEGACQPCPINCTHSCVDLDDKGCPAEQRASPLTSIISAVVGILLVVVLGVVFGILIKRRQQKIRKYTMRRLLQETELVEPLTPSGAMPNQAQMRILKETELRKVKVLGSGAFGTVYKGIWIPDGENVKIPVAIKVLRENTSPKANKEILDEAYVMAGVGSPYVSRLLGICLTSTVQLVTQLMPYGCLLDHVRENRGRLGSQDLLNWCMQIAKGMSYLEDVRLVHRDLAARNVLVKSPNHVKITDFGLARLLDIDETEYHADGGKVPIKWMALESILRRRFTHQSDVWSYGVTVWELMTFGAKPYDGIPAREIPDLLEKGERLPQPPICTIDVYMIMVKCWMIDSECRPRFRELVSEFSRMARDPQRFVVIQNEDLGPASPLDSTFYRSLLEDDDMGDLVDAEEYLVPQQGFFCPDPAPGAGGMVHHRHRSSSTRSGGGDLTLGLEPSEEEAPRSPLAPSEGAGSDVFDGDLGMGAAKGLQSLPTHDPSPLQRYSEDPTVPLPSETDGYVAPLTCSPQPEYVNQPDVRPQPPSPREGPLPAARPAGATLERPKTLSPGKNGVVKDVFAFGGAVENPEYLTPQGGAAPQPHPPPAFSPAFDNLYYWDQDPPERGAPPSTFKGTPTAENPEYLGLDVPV
Sequence of Ephrin type-A receptor 2 (P29317 whole entry, the tested form may be a part): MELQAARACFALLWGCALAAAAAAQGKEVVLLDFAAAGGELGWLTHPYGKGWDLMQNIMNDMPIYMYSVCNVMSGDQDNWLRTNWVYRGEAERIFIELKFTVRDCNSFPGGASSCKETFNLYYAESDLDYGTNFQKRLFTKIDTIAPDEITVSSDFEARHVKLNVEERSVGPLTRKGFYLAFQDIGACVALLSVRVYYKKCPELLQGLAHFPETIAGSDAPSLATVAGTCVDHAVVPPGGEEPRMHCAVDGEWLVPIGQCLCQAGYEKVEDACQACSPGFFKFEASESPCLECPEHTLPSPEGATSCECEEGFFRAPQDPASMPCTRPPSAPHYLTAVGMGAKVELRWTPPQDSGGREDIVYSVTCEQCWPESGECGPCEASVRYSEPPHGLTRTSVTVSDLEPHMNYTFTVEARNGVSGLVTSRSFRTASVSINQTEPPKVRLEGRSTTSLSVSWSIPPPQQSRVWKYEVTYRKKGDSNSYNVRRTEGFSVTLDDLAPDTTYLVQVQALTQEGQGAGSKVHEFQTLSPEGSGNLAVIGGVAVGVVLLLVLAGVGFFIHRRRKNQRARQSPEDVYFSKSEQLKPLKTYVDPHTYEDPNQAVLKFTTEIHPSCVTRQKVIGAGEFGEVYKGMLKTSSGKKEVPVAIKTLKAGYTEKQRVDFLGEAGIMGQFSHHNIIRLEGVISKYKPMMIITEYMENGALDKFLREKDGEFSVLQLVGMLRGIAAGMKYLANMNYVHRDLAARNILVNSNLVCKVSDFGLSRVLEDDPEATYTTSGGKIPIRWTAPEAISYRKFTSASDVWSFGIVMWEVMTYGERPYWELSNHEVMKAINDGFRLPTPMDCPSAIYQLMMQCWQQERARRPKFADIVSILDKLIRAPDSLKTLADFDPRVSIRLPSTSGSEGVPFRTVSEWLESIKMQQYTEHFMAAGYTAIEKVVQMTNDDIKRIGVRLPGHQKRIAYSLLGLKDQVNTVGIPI
Sequence of Vascular endothelial growth factor receptor 2 (P35968 whole entry, the tested form may be a part): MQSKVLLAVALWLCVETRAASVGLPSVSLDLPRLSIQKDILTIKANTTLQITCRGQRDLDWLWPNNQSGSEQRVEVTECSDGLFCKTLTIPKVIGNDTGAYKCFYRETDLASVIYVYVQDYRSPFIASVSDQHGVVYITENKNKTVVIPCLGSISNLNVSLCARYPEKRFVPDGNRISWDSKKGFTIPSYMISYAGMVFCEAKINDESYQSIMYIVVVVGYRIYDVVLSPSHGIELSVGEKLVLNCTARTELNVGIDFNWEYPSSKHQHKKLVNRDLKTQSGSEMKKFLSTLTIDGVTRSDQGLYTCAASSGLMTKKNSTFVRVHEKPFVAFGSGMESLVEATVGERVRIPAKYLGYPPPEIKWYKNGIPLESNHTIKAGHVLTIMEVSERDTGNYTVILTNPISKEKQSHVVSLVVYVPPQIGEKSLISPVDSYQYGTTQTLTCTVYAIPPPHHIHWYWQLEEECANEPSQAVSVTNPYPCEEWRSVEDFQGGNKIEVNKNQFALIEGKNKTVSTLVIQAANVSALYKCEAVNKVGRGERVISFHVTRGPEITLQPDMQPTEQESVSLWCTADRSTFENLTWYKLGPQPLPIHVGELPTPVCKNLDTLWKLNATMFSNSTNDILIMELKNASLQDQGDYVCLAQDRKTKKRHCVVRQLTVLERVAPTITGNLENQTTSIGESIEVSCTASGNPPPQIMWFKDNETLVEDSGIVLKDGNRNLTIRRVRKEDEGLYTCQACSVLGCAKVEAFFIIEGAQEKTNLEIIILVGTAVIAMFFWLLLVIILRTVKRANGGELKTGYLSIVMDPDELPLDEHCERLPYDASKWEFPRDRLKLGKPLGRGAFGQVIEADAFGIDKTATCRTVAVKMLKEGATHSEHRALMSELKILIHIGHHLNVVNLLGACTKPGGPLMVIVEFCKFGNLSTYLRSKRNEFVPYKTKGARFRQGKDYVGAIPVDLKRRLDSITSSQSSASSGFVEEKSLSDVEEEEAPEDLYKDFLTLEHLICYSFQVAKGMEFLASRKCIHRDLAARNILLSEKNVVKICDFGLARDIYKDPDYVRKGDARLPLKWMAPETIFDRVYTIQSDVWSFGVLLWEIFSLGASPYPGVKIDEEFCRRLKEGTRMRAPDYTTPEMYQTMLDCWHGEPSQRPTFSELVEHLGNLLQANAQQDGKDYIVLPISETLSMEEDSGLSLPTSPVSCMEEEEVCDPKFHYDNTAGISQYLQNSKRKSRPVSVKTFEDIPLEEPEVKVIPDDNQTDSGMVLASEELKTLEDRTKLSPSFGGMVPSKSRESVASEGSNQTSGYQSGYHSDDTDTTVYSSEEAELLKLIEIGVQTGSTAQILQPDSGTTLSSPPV

The term IC50 denotes the concentration that gives 50% inhibition. Turning to `COc1cc2c(Nc3ccc(Br)c(Cl)c3F)ncnc2cc1OC[C@@H]1CN(C)CC(=O)N1C`, the IC50 on Ephrin type-A receptor 2 lay in the range of 0.05 to 1 µM; at Ephrin type-B receptor 4, 0.05 to 1 µM; in assay [1], 1 to 20 µM; in assay [2], 0.05 to 1 µM.

As to `COc1cc2c(Nc3ccc(N4CCN(C)CC4)c(Cl)c3Cl)ncnc2cc1O[C@H]1CO[C@H]2[C@@H]1OC[C@@H]2F`, the IC50 (on Ephrin type-A receptor 2; at Ephrin type-B receptor 4; in assay [1]; in assay [2]) was 1 to 20 µM throughout.

With `COc1cc2c(Nc3ccc(Br)c(Cl)c3)ncnc2cc1O[C@H]1CO[C@H]2[C@@H]1OC[C@@H]2O`, the IC50 is 1 to 20 µM on Ephrin type-A receptor 2, 0.05 to 1 µM at Ephrin type-B receptor 4, 0.05 to 1 µM in assay [1] and 1 to 20 µM in assay [2].

For the compound `COc1cc2c(Nc3ccc(F)c(Cl)c3F)ncnc2cc1OCC1CN(C)C(C)(C)CO1` (stereo not given), the IC50 at Ephrin type-A receptor 2 was less than 0.05 µM; at Ephrin type-B receptor 4 it was less than 0.05 µM; in assay [1] it was 0.05 to 1 µM; in assay [2], 0.05 to 1 µM.

On to `COc1cc2c(Nc3ccc(Br)c(Cl)c3)ncnc2cc1O[C@H]1CO[C@H]2[C@@H]1OC[C@@H]2S(C)(=O)=O`, for which the IC50 lay within 1 to 20 µM at Ephrin type-A receptor 2, 0.05 to 1 µM at Ephrin type-B receptor 4, 0.05 to 1 µM in assay [1] and 1 to 20 µM in assay [2].

Turning to `CCN(CC)[C@H]1CO[C@H]2[C@@H]1OC[C@@H]2Oc1cc2ncnc(Nc3ccc(Br)c(Cl)c3)c2cc1OC`, the IC50 at Ephrin type-A receptor 2 is 1 to 20 µM; on Ephrin type-B receptor 4, 0.05 to 1 µM; in assay [1], 1 to 20 µM; in assay [2] it was 0.05 to 1 µM.

`COc1cc2c(Nc3ccc(Cl)c(Cl)c3F)ncnc2cc1OC[C@@H]1CN(C)CC(=O)N1C`: the 50% inhibitory concentration (IC50) on Ephrin type-A receptor 2 was in the range of 0.05 to 1 µM; at Ephrin type-B receptor 4 it was 0.05 to 1 µM; in assay [1], 1 to 20 µM; in assay [2], 0.05 to 1 µM.

Take `COc1cc2c(Nc3ccc(Cl)c(Cl)c3F)ncnc2cc1OCC1CN(C)C(C)(C)CO1` (stereo not given): the 50% inhibitory concentration (IC50) (at Ephrin type-A receptor 2; on Ephrin type-B receptor 4; in assay [1]; in assay [2]) was less than 0.05 µM in each case.

Consider `COc1cc2c(Nc3cc(Cl)c(Cl)cc3F)ncnc2cc1OCC1CN(C)C(C)(C)CO1` (stereo not given), for which the IC50 (at Ephrin type-A receptor 2; at Ephrin type-B receptor 4; in assay [1]; in assay [2]) was less than 0.05 µM each time.

In the case of `COc1cc2c(Nc3ccc(Br)c(Cl)c3)ncnc2cc1O[C@H]1CO[C@H]2[C@@H]1OC[C@@H]2N1CCOCC1`, the IC50 on Ephrin type-A receptor 2 fell in the range of 1 to 20 µM; at Ephrin type-B receptor 4, 0.05 to 1 µM; in assay [1], 1 to 20 µM; in assay [2] it was 1 to 20 µM.

Turning to `COc1cc2c(Nc3ccc(Br)c(Cl)c3)ncnc2cc1O[C@H]1CO[C@H]2[C@@H]1OC[C@@H]2N1CCCC1`, the IC50 on Ephrin type-A receptor 2 was in the range of 1 to 20 µM; at Ephrin type-B receptor 4 it was 0.05 to 1 µM; in assay [1] it was 1 to 20 µM; in assay [2], 1 to 20 µM.

In the case of `COc1cc2c(Nc3ccc(N4CCN(C)CC4)cc3)ncnc2cc1O[C@H]1CO[C@H]2[C@@H]1OC[C@@H]2F`, the IC50 (on Ephrin type-A receptor 2; on Ephrin type-B receptor 4; in assay [1]; in assay [2]) was 1 to 20 µM in each case.

Turning to `COc1cc2c(Nc3ccc(Br)c(Cl)c3)ncnc2cc1O[C@H]1CO[C@H]2[C@@H]1OC[C@@H]2N1CCCCC1`, the IC50 fell in the range of 1 to 20 µM at Ephrin type-A receptor 2, 0.05 to 1 µM at Ephrin type-B receptor 4, 1 to 20 µM in assay [1] and 1 to 20 µM in assay [2].

On to `COc1cc2c(Nc3ccc(Cl)c(Cl)c3F)ncnc2cc1OC[C@@H]1CN(C)CC(=O)N1`, for which the IC50 (on Ephrin type-A receptor 2; on Ephrin type-B receptor 4; in assay [1]; in assay [2]) was 0.05 to 1 µM each time.

Regarding `COc1cc2c(Nc3ccc(Br)c(Cl)c3)ncnc2cc1O[C@H]1CO[C@H]2[C@@H]1OC[C@@H]2OC(C)=O`, the IC50 at Ephrin type-A receptor 2 was in the range of 1 to 20 µM; at Ephrin type-B receptor 4, 0.05 to 1 µM; in assay [1], 1 to 20 µM; in assay [2], 1 to 20 µM.

For `COc1cc2c(Nc3ccc(Br)c(Cl)c3F)ncnc2cc1OC[C@@H]1CN(C)CC(=O)N1`, the IC50 (on Ephrin type-A receptor 2; on Ephrin type-B receptor 4; in assay [1]; in assay [2]) was 0.05 to 1 µM each time.

Turning to `COc1cc2c(Nc3ccc(Br)c(Cl)c3F)ncnc2cc1OCC1CN(C)C(C)(C)CO1` (stereo not given), the 50% inhibitory concentration (IC50) (on Ephrin type-A receptor 2; on Ephrin type-B receptor 4; in assay [1]; in assay [2]) was less than 0.05 µM in each case.

`COc1cc2c(Nc3ccc(Br)c(Cl)c3)ncnc2cc1O[C@@H]1CCOC1`: the IC50 on Ephrin type-A receptor 2 lay in the range of 1 to 20 µM; on Ephrin type-B receptor 4 it was 0.05 to 1 µM; in assay [1] it was 0.05 to 1 µM; in assay [2], 0.05 to 1 µM.

Consider `COc1cc2c(Nc3ccc(Br)c(Cl)c3)ncnc2cc1O[C@@H]1CO[C@H]2[C@@H]1OC[C@@H]2NS(C)(=O)=O`, for which the IC50 at Ephrin type-A receptor 2 is 1 to 20 µM; at Ephrin type-B receptor 4, 0.05 to 1 µM; in assay [1], 0.05 to 1 µM; in assay [2] it was 1 to 20 µM.

Consider `COc1cc2c(Nc3ccc(Br)c(Cl)c3)ncnc2cc1O[C@@H]1CO[C@H]2[C@@H]1OC[C@@H]2O`, for which the IC50 was 1 to 20 µM at Ephrin type-A receptor 2, 0.05 to 1 µM on Ephrin type-B receptor 4, 0.05 to 1 µM in assay [1] and 1 to 20 µM in assay [2].

In the case of `COc1cc2c(Nc3ccc(Br)c(Cl)c3)ncnc2cc1O[C@H]1CO[C@H]2[C@@H]1OC[C@@H]2SC`, the IC50 on Ephrin type-A receptor 2 is 1 to 20 µM; on Ephrin type-B receptor 4 it was 0.05 to 1 µM; in assay [1] it was 1 to 20 µM; in assay [2], 1 to 20 µM.

In the case of `COc1cc2c(Nc3ccc(Br)c(Cl)c3)ncnc2cc1O[C@H]1CO[C@H]2[C@@H]1OC[C@@H]2NC(C)=O`, the IC50 was in the range of 1 to 20 µM at Ephrin type-A receptor 2, 0.05 to 1 µM at Ephrin type-B receptor 4, 1 to 20 µM in assay [1] and 1 to 20 µM in assay [2].

For `COc1cc2c(Nc3ccc(Br)c(Cl)c3)ncnc2cc1OC1CCN(C)C1` (stereo not given), the IC50 on Ephrin type-A receptor 2 was 1 to 20 µM; on Ephrin type-B receptor 4, 0.05 to 1 µM; in assay [1], 1 to 20 µM; in assay [2], 0.05 to 1 µM.

For the compound `COc1cc2c(Nc3cc(Cl)c(Br)cc3F)ncnc2cc1OCC1CN(C)C(C)(C)CO1` (stereo not given), the IC50 is less than 0.05 µM on Ephrin type-A receptor 2, less than 0.05 µM at Ephrin type-B receptor 4, 0.05 to 1 µM in assay [1] and less than 0.05 µM in assay [2].

In the case of `COc1cc2c(Nc3ccc(Br)c(Cl)c3)ncnc2cc1O[C@H]1CO[C@H]2[C@@H]1OC[C@@H]2N1CCN(C)CC1`, the IC50 on Ephrin type-A receptor 2 was 1 to 20 µM; at Ephrin type-B receptor 4 it was 0.05 to 1 µM; in assay [1] it was 1 to 20 µM; in assay [2], 1 to 20 µM.

Regarding `CN[C@H]1CO[C@H]2[C@@H]1OC[C@@H]2Oc1cc2ncnc(Nc3ccc(Br)c(Cl)c3)c2cc1OC`, the IC50 lay in the range of 1 to 20 µM on Ephrin type-A receptor 2, 0.05 to 1 µM on Ephrin type-B receptor 4, 1 to 20 µM in assay [1] and 1 to 20 µM in assay [2].

Consider `COc1cc2c(Nc3ccc(Br)c(Cl)c3)ncnc2cc1O[C@H]1CO[C@H]2[C@@H]1OC[C@@H]2N`, for which the IC50 is 1 to 20 µM on Ephrin type-A receptor 2, 0.05 to 1 µM at Ephrin type-B receptor 4, 1 to 20 µM in assay [1] and 1 to 20 µM in assay [2].

Regarding `COc1cc2c(Nc3ccc(Br)c(Cl)c3Cl)ncnc2cc1OCC1CN(C)C(C)(C)CO1` (stereo not given), the IC50 at Ephrin type-A receptor 2 is less than 0.05 µM; at Ephrin type-B receptor 4 it was less than 0.05 µM; in assay [1], 0.05 to 1 µM; in assay [2], 0.05 to 1 µM.

`COc1cc2c(Nc3ccc(Cl)c(Cl)c3N3CCN(C)CC3)ncnc2cc1O[C@H]1CO[C@H]2[C@@H]1OC[C@@H]2F`: the IC50 (on Ephrin type-A receptor 2; at Ephrin type-B receptor 4; in assay [1]; in assay [2]) was 1 to 20 µM in each case.

For the compound `COc1cc2c(Nc3ccc(Br)c(Cl)c3)ncnc2cc1O[C@@H]1CO[C@H]2[C@@H]1OC[C@@H]2OS(C)(=O)=O`, the IC50 (at Ephrin type-A receptor 2; on Ephrin type-B receptor 4; in assay [1]; in assay [2]) was 1 to 20 µM throughout.

Source of the values: ChEMBL document CHEMBL3882729, “Receptor-type kinase modulators and methods of use” (2009).
